{
  "source": "ChEMBL document CHEMBL1201862",
  "about": "“PubChem BioAssay data set” (2004)",
  "key": {"[1]": {"test": "HPDE-C7 pancreatic duct cell viability loss – fluorescence, HTS (AID 430)", "type": "functional, cell-based", "details": "Homo sapiens"}, "[2]": {"test": "viability loss of HPDE-C7K cells – cell-based, fluorescence, HTS, primary screen (AID 431)", "type": "functional", "details": "Homo sapiens"}, "[3]": {"test": "viability of uninfected HEp-2 cells – cell-based, HTS, cytotoxicity control for RSV inhibitor project, dose response (AID 2410)", "type": "functional", "details": "human respiratory syncytial virus"}, "[4]": {"test": "blockers of HIV-1 envelope-mediated cell-cell fusion – cherry-pick, dose response (AID 652057)", "type": "functional, cell-based"}, "[5]": {"test": "blockers of HIV-1 ZM109 envelope-driven cell-cell fusion – HeLa effector, CEM target cells, luciferase, cherry-pick, dose response (AID 652058)", "type": "functional, cell-based"}, "[6]": {"test": "off-target signal loss in HeLa-CEM21 co-culture – HeLa F-luc CTL cells, cherry-picked, counter-screen for HIV-1 Env fusion inhibitor project, dose response (AID 652040);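 further: potency for signal decrease marking cytotoxic or nonspecific inhibition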", "type": "functional, cell-based"}, "[7]": {"test": "HIV-1 AD8 envelope cell-cell fusion blockers – cherry-pick, dose response (AID 652062);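 further: potency is for inhibitors of fusion seen as a drop in luminescence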", "type": "functional, cell-based"}, "[8]": {"target": "T1, Caspase-6 (Homo sapiens, UniProt P55212)", "T1 sequence (P55212 whole entry)": "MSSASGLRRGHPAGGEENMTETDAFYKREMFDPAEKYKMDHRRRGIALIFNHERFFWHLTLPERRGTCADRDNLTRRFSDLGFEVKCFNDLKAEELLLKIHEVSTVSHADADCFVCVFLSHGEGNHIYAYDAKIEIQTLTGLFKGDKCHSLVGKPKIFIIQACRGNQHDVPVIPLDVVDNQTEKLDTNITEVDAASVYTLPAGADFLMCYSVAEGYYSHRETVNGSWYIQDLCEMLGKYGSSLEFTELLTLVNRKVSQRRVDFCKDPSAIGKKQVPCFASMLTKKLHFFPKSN", "test": "inhibition of CASP6 peptide cleavage – biochemical, VEID-R110 fluorescence, cherry-pick, dose response (AID 720632)"}, "[9]": {"test": "A cytotoxicity screen of small molecule inhibitors of the PhoP region in Salmonella typhi identified in the primary screen. [Related pubchem assays: 1850, 1864, 1985 ]", "type": "functional"}, "[10]": {"test": "viability loss in THP-1 monocytes – THP-1 cells, cytotoxicity control for Vif-APOBEC3G degradation inhibitor project, dose response (AID 1117359)", "type": "functional", "details": "THP-1"}, "[11]": {"test": "A549 cell cytotoxicity, dose response, cytotoxicity control, plate reader, cherry-pick, antagonist series (AID 743412)", "type": "functional, cell-based"}, "[12]": {"test": "toxicity toward HepG2 liver cells – cell-based, plate reader, cherry-pick, antagonist series, cytotoxicity control, dose response (AID 743416)", "type": "functional"}, "[13]": {"test": "blockers of bursicon-stimulated LGR2 cAMP reporter – cell-based, HEK293, CRE-luciferase reporter, cherry pick, set 2, dose response (AID 743343);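 further: transfected cells were stimulated with diluted bursicon conditioned medium after compound addition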", "type": "functional"}, "[14]": {"test": "blockade of melanocortin 4 receptor signaling – cell-based, plate reader, cherry pick, counter-screen for LGR2 antagonist project, dose response (AID 743444);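 further: transfected HEK 293 cells stimulated with alpha-MSH peptide; potency of inhibitors of the alpha-MSH evoked signal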", "type": "functional"}, "[15]": {"test": "viability loss in HEK293 cells – cell-based, plate reader, cherry-picked samples, cytotoxicity control, dose response (AID 743446)", "type": "functional"}, "[16]": {"test": "Trypanosoma cruzi growth suppression in host cells – NIH3T3 host cells, beta-gal luminescence, confirmation (AID 2044);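 further: intracellular parasites grown in NIH/3T3 mouse fibroblasts as host cells; luminescent beta-galactosidase reporter signal from transgenic T. cruzi replicating inside host cells; inhibitors lower the luminescence signal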", "type": "functional, cell-based"}, "[17]": {"test": "NIH3T3 cell viability loss – ATP luminescence, mouse fibroblasts, counter-screen, dose response (AID 2010);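 further: cells exposed to compound for about 90 hours before reading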", "type": "functional, cell-based"}, "[18]": {"target": "T2, Microphthalmia-associated transcription factor (Homo sapiens, UniProt O75030)", "T2 sequence (O75030 whole entry)": "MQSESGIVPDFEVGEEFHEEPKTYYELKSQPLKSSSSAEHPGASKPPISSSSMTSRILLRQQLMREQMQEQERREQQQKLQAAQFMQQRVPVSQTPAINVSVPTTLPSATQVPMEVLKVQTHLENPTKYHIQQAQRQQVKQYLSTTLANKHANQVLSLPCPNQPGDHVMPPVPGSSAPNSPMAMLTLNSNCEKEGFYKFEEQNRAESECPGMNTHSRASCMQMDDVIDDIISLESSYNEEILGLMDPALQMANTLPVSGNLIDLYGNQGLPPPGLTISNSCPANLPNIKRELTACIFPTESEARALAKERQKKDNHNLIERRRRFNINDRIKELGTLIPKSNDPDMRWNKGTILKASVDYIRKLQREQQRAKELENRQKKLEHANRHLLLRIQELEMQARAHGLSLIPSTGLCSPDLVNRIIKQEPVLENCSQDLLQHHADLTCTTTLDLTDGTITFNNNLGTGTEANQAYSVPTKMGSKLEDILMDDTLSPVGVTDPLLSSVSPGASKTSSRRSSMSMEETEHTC", "test": "reducers of TRPM1 reporter luminescence, concentration series – cell-based, SK-MEL-5, cherry-picked, set 3, MITF inhibitor project, dose response (AID 493073)", "type": "functional"}, "[19]": {"test": "cells", "type": "functional"}, "[20]": {"test": "cells"}},
  "note": "Activity calls are given as the source filed them.",
  "data": [
    {"smiles": "Cc1ccc(-c2nnc(N3CCN(c4ccccn4)CC3)c3ccccc23)cc1", "values": [
      {"measurement": "EC50", "setting": "[1]", "value": "16.5 µM (active)"},
      {"measurement": "EC50", "setting": "[2]", "value": "16.7 µM (active)"}
    ]},
    {"smiles": "CC[C@@]12C(=O)N(c3ccc(C)cc3)C(=O)N1[C@H](c1ccc(Br)cc1)[C@@H]1C(=O)N(C(C)(C)C)C(=O)[C@@H]12", "values": [
      {"measurement": "CC50", "setting": "[3]", "value": "> 50 µM (active)"},
      {"measurement": "AC50", "setting": "[4]", "value": "0.301 µM (active)"},
      {"measurement": "AC50", "setting": "[5]", "value": "< 0.5 µM (active)"},
      {"measurement": "AC50", "setting": "[6]", "value": "0.559 µM (active)"},
      {"measurement": "AC50", "setting": "[7]", "value": "1.06 µM (active)"}
    ]},
    {"smiles": "O=C(NN1C(=O)C2CC=C(Cl)CC2C1=O)c1ccncc1", "note": "(configuration not stated)", "values": [
      {"measurement": "AC50", "setting": "[8]", "value": "16.5 µM (active)"}
    ]},
    {"smiles": "CCCC1(c2ccccc2)NC(=O)N(CC(=O)Nc2ccccc2C(F)(F)F)C1=O", "note": "(configuration not stated)", "values": [
      {"measurement": "EC50", "setting": "[9]", "value": "> 50 µM (active)"}
    ]},
    {"smiles": "Cc1ccc(S(=O)(=O)NCCC(=O)N2CCN(C/C=C/c3ccccc3)CC2)cc1", "values": [
      {"measurement": "CC50", "setting": "[10]", "value": "> 40 µM (active)"}
    ]},
    {"smiles": "Cc1ccsc1/C=N\\NC(=O)c1[nH]nc2c1CCC2", "values": [
      {"measurement": "AC50", "setting": "[11]", "value": "3.65 µM (active)"},
      {"measurement": "AC50", "setting": "[12]", "value": "4.37 µM (active)"},
      {"measurement": "AC50", "setting": "[13]", "value": "6.59 µM (active)"},
      {"measurement": "AC50", "setting": "[14]", "value": "7.75 µM (active)"},
      {"measurement": "AC50", "setting": "[15]", "value": "16.4 µM (active)"}
    ]},
    {"smiles": "CC(C)(C)c1nc2ccc(Cl)cn2c1CC1CCCCC1", "values": [
      {"measurement": "AC50", "setting": "[11]", "value": "> 52 µM (inactive)"},
      {"measurement": "AC50", "setting": "[12]", "value": "> 52 µM (inactive)"},
      {"measurement": "AC50", "setting": "[15]", "value": "> 52 µM (inactive)"}
    ]},
    {"smiles": "O=C(Cc1ccccc1)N1CCCCN2[C@H](CO)[C@@H](c3ccc(C#Cc4ccccc4)cc3)[C@H]2C1", "values": [
      {"measurement": "AC50", "setting": "[8]", "value": "47.3 µM (active)"}
    ]},
    {"smiles": "Cc1ccc(OCC(=O)N/N=C/c2ccc([N+](=O)[O-])o2)cc1", "values": [
      {"measurement": "EC50", "setting": "[9]", "value": "> 50 µM (active)"},
      {"measurement": "EC50", "setting": "[16]", "value": "< 0.1 µM (active)"},
      {"measurement": "EC50", "setting": "[17]", "value": "> 60 µM (not active)"},
      {"measurement": "AC50", "setting": "[18]", "value": "8.9 µM (active)"},
      {"measurement": "IC50", "setting": "[19]", "value": "3.01 µM (active)"},
      {"measurement": "EC50", "setting": "[20]", "value": "0.078 µM (active)"}
    ]},
    {"smiles": "Cc1cc(/C=N/NC(=O)C(O)(c2ccccc2)c2ccccc2)c(C)n1-c1cccc(C(=O)O)c1", "values": [
      {"measurement": "AC50", "setting": "[8]", "value": "1.78 µM (active)"}
    ]},
    {"smiles": "Cc1ccsc1/C=N/Nc1ccc(C(=O)O)cc1", "values": [
      {"measurement": "EC50", "setting": "[9]", "value": "> 50 µM (active)"}
    ]}
  ]
}
